Assay results published in patent US20230174530A1, “N-(PHENYLAMINOCARBONYL) TETRAHYDRO-ISOQUINOLINES AND RELATED COMPOUNDS AS MODULATORS OF GPR65” (PATHIOS THERAPEUTICS LIMITED, priority 2020, published 2023).

target: T1, human recombinant GPR65 (Homo sapiens, UniProt Q8IYL9); assay: Human GPR65 cAMP HTRF antagonist assay; format: cell-based; details: 1321N1-hrGPR65 cells stimulated at assay pH 7.2; suppression of cAMP rise; read-out: hGPR65 IC50
T1 construct: host or cells: 1321N1 human astrocytoma cells (1321N1-hrGPR65)
Procedure: Human GPR65 Cyclic Adenosine Monophosphate (cAMP) Homogeneous Time Resolved Fluorescence (HTRF) Antagonist Assay Procedure
IC50 data was obtained by the following procedure:
1321N1 human astrocytoma cells stably expressing human recombinant GPR65 (1321N1-hrGPR65 cells, EuroscreenFast) were cultured according to the vendor's instructions.
Compounds were tested for their ability to antagonise GPR65, through measuring the concentration of cytoplasmic cAMP following treatment of the cells at a pH of 7.2 to activate GPR65 signalling and addition of the compound to be tested. The extent to which the expected rise in cAMP concentration upon GPR65 activation was suppressed by the added compound is indicative of its potency. The assay was carried out according to EuroscreenFast assay methodology as follows.
On the day of the assay, test compounds were added to 384-well, low volume, white microtiter plates by acoustic dispensing. KRH buffer (5 mM KCl, 1.25 mM MgSO4, 124 mM NaCl, 25 mM HEPES, 13.3 mM Glucose, 1.25 mM KH2PO4 and 1.45 mM CaCl2) was adjusted to pH 6.5, pH 7.6 and pH 8.4 by adding NaOH. 1321N1-hGPR65 cells were rapidly thawed and diluted in KRH, pH 7.6 prior to centrifugation at 300×g for 5 min and resuspension in assay buffer (KRH, pH 7.6, supplemented with 1 mM 3-isobutyl-1-methylxanthine (IBMX) and 200 μM ethylenediaminetetraacetic acid (EDTA)). Cells were added to assay plates at a density of 2,000 cells per well in a volume of 5 μl. Assay plates were briefly centrifuged at 100×g and then incubated at room temperature for 30 min. Cells were stimulated by the addition of 5 μL KRH, pH 6.5, to achieve an assay pH of 7.2, while control wells received 5 μl KRH, pH 8.4 to achieve an assay pH of 7.9. Assay plates were briefly centrifuged at 100×g and then incubated at room temperature for 30 min.
Accumulation of cAMP was detected by cAMP HTRF kit (Cisbio). d2-labeled cAMP and cryptate-labeled anti-cAMP antibody in Lysis and Detection Buffer (Cisbio) were added to assay plates, and the plates were incubated at room temperature for 1 h. HTRF measurements were performed using a Pherastar FSX instrument. Acceptor and donor emission signals were measured at 665 nm and 620 nm, respectively, and HTRF ratios were calculated as signal665 nm/signal620 nm×10^4. Data were normalised to high and low control values and fitted with 4-parameter logistic regression to determine hGPR65 IC50 values for the test compounds, which are shown in Table 1.

T1 sequence (Q8IYL9 whole entry): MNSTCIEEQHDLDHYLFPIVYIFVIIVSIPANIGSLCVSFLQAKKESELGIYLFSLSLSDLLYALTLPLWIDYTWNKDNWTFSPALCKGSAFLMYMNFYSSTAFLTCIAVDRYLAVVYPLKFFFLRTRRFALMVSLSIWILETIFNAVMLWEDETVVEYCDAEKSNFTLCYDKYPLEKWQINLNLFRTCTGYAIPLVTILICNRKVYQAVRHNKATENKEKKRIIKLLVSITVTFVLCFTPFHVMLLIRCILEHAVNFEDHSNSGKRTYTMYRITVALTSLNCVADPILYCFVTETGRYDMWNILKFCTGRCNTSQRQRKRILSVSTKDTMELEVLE

| SMILES | IC50 [nM] |
| --- | --- |
| Cc1ccc2c(c1)CN(C(=O)Nc1ccc(Cl)c(Cl)c1)CC2 [Compound 34, N-(3,4-Dichlorophenyl)-7-methyl-3,4-dihydroisoquinoline-2(1H)-carboxamide] | > 5000 |
| O=C(Nc1ccc(Cl)c(C(F)(F)F)c1)N1CCc2cccc(F)c2C1 [Compound 46, N-(4-Chloro-3-(trifluoromethyl)phenyl)-8-fluoro-3,4-dihydroisoquinoline-2(1H)-carboxamide] | > 5000 |
| N#Cc1ccc2c(c1)CN(C(=O)Nc1ccc(Cl)c(C(F)(F)F)c1)CC2 [Compound 50, N-(4-Chloro-3-(trifluoromethyl)phenyl)-7-cyano-3,4-dihydroisoquinoline-2(1H)-carboxamide] | 500 to 5000 |
| N#Cc1ccc2c(c1)CN(C(=O)Nc1ccc(C(F)(F)F)c(Cl)c1)CC2 [Compound 51, N-(3-Chloro-4-(trifluoromethyl)phenyl)-7-cyano-3,4-dihydroisoquinoline-2(1H)-carboxamide] | 500 to 5000 |
| O=C(Nc1ccc(Cl)c(Cl)c1)N1CCc2c(Cl)cccc2C1 [Compound 55, 5-Chloro-N-(3,4-dichlorophenyl)-3,4-dihydroisoquinoline-2(1H)-carboxamide] | 500 to 5000 |
| O=C(Nc1ccc(Cl)c(C(F)(F)F)c1)N1CCc2c(Cl)cccc2C1 [Compound 56, 5-Chloro-N-(4-chloro-3-(trifluoromethyl)phenyl)-3,4-dihydroisoquinoline-2(1H)-carboxamide] | > 5000 |
| O=C(Nc1ccc(C(F)(F)F)c(Cl)c1)N1CCc2c(Cl)cccc2C1 [Compound 57, 5-Chloro-N-(3-chloro-4-(trifluoromethyl)phenyl)-3,4-dihydroisoquinoline-2(1H)-carboxamide] | 500 to 5000 |
| Cc1cccc2c1CCN(C(=O)Nc1ccc(Cl)c(Cl)c1)C2 [Compound 58, N-(3,4-Dichlorophenyl)-5-methyl-3,4-dihydroisoquinoline-2(1H)-carboxamide] | 500 to 5000 |
| Cc1cccc2c1CCN(C(=O)Nc1ccc(Cl)c(C(F)(F)F)c1)C2 [Compound 59, N-(4-Chloro-3-(trifluoromethyl)phenyl)-5-methyl-3,4-dihydroisoquinoline-2(1H)-carboxamide] | 500 to 5000 |
| Cc1cccc2c1CCN(C(=O)Nc1ccc(C(F)(F)F)c(Cl)c1)C2 [Compound 60, N-(3-Chloro-4-(trifluoromethyl)phenyl)-5-methyl-3,4-dihydroisoquinoline-2(1H)-carboxamide] | 500 to 5000 |
| COc1ccc2c(c1)CN(C(=O)Nc1ccc(Cl)c(Cl)c1)CC2 [Compound 61, N-(3,4-Dichlorophenyl)-7-methoxy-3,4-dihydroisoquinoline-2(1H)-carboxamide] | 500 to 5000 |
| COc1ccc2c(c1)CN(C(=O)Nc1ccc(Cl)c(C(F)(F)F)c1)CC2 [Compound 62, N-(4-Chloro-3-(trifluoromethyl)phenyl)-7-methoxy-3,4-dihydroisoquinoline-2(1H)-carboxamide] | > 5000 |
| COc1ccc2c(c1)CN(C(=O)Nc1ccc(C(F)(F)F)c(Cl)c1)CC2 [Compound 63, N-(3-Chloro-4-(trifluoromethyl)phenyl)-7-methoxy-3,4-dihydroisoquinoline-2(1H)-carboxamide] | 500 to 5000 |
| COc1cccc2c1CN(C(=O)Nc1ccc(Cl)c(Cl)c1)CC2 [Compound 64, N-(3,4-Dichlorophenyl)-8-methoxy-3,4-dihydroisoquinoline-2(1H)-carboxamide] | 500 to 5000 |
| COc1ccc2c(c1)CCN(C(=O)Nc1ccc(Cl)c(Cl)c1)C2 [Compound 65, N-(3,4-Dichlorophenyl)-6-methoxy-3,4-dihydroisoquinoline-2(1H)-carboxamide] | > 5000 |
| COc1ccc2c(c1)CCN(C(=O)Nc1ccc(Cl)c(C(F)(F)F)c1)C2 [Compound 66, N-(4-Chloro-3-(trifluoromethyl)phenyl)-6-methoxy-3,4-dihydroisoquinoline-2(1H)-carboxamide] | 500 to 5000 |
| COc1ccc2c(c1)CCN(C(=O)Nc1ccc(C(F)(F)F)c(Cl)c1)C2 [Compound 67, N-(3-Chloro-4-(trifluoromethyl)phenyl)-6-methoxy-3,4-dihydroisoquinoline-2(1H)-carboxamide] | 500 to 5000 |
| O=C(Nc1ccc(C(F)(F)F)c(Cl)c1)N1CCc2c(cccc2C(F)(F)F)C1 [Compound 70, N-(3-Chloro-4-(trifluoromethyl)phenyl)-5-(trifluoromethyl)-3,4-dihydroisoquinoline-2(1H)-carboxamide] | > 5000 |
| O=C(Nc1ccc(C(F)(F)F)c(Cl)c1)N1CCc2ccc(C(F)(F)F)cc2C1 [Compound 71, N-(3-Chloro-4-(trifluoromethyl)phenyl)-7-(trifluoromethyl)-3,4-dihydroisoquinoline-2(1H)-carboxamide] | 500 to 5000 |

More lines, now with the values ahead:

| IC50 [nM] | SMILES |
| --- | --- |
| < 500 | O=C(Nc1ccc(C(F)(F)F)c(Cl)c1)N1CCc2ccc(F)cc2C1 [Compound 33, N-(3-Chloro-4-(trifluoromethyl)phenyl)-7-fluoro-3,4-dihydroisoquinoline-2(1H)-carboxamide] |
| 500 to 5000 | Cc1ccc2c(c1)CN(C(=O)Nc1ccc(C(F)(F)F)c(Cl)c1)CC2 [Compound 35, N-(3-Chloro-4-(trifluoromethyl)phenyl)-7-methyl-3,4-dihydroisoquinoline-2(1H)-carboxamide] |
| < 500 | O=C(Nc1ccc(C(F)(F)F)c(Cl)c1)N1CCc2c(F)cccc2C1 [Compound 36, N-(3-Chloro-4-(trifluoromethyl)phenyl)-5-fluoro-3,4-dihydroisoquinoline-2(1H)-carboxamide] |
| < 500 | N#Cc1ccc2c(c1)CCN(C(=O)Nc1ccc(Cl)c(Cl)c1)C2 [Compound 37, 6-Cyano-N-(3,4-dichlorophenyl)-3,4-dihydroisoquinoline-2(1H)-carboxamide] |
| 500 to 5000 | N#Cc1ccc2c(c1)CCN(C(=O)Nc1ccc(Cl)c(C(F)(F)F)c1)C2 [Compound 38, N-(4-Chloro-3-(trifluoromethyl)phenyl)-6-cyano-3,4-dihydroisoquinoline-2(1H)-carboxamide] |
| < 500 | N#Cc1ccc2c(c1)CCN(C(=O)Nc1ccc(C(F)(F)F)c(Cl)c1)C2 [Compound 39, N-(3-Chloro-4-(trifluoromethyl)phenyl)-6-cyano-3,4-dihydroisoquinoline-2(1H)-carboxamide] |
| < 500 | O=C(Nc1ccc(Cl)c(Cl)c1)N1CCc2cc(F)ccc2C1 [Compound 42, N-(3,4-Dichlorophenyl)-6-fluoro-3,4-dihydroisoquinoline-2(1H)-carboxamide] |
| < 500 | O=C(Nc1ccc(Cl)c(C(F)(F)F)c1)N1CCc2cc(F)ccc2C1 [Compound 43, N-(4-Chloro-3-(trifluoromethyl)phenyl)-6-fluoro-3,4-dihydroisoquinoline-2(1H)-carboxamide] |
| < 500 | O=C(Nc1ccc(C(F)(F)F)c(Cl)c1)N1CCc2cc(F)ccc2C1 [Compound 44, N-(3-Chloro-4-(trifluoromethyl)phenyl)-6-fluoro-3,4-dihydroisoquinoline-2(1H)-carboxamide] |
| 500 to 5000 | O=C(Nc1ccc(Cl)c(Cl)c1)N1CCc2cccc(F)c2C1 [Compound 45, N-(3,4-Dichlorophenyl)-8-fluoro-3,4-dihydroisoquinoline-2(1H)-carboxamide] |
| 500 to 5000 | O=C(Nc1ccc(C(F)(F)F)c(Cl)c1)N1CCc2cccc(F)c2C1 [Compound 47, N-(3-Chloro-4-(trifluoromethyl)phenyl)-8-fluoro-3,4-dihydroisoquinoline-2(1H)-carboxamide] |
| 500 to 5000 | N#Cc1ccc2c(c1)CN(C(=O)Nc1ccc(Cl)c(Cl)c1)CC2 [Compound 49, 7-Cyano-N-(3,4-dichlorophenyl)-3,4-dihydroisoquinoline-2(1H)-carboxamide] |
| < 500 | O=C(Nc1ccc(Cl)c(Cl)c1)N1CCc2cc(Cl)ccc2C1 [Compound 52, 6-Chloro-N-(3,4-dichlorophenyl)-3,4-dihydroisoquinoline-2(1H)-carboxamide] |
| < 500 | O=C(Nc1ccc(Cl)c(C(F)(F)F)c1)N1CCc2cc(Cl)ccc2C1 [Compound 53, 6-Chloro-N-(4-chloro-3-(trifluoromethyl)phenyl)-3,4-dihydroisoquinoline-2(1H)-carboxamide] |
| < 500 | O=C(Nc1ccc(C(F)(F)F)c(Cl)c1)N1CCc2cc(Cl)ccc2C1 [Compound 54, 6-Chloro-N-(3-chloro-4-(trifluoromethyl)phenyl)-3,4-dihydroisoquinoline-2(1H)-carboxamide] |
